Experimental data reported in PubChem BioAssay AID1963834 (Molecular Pharmacology Branch, DTP, NCI, 2024).
pIC50: −log10 of the molar value.

Test system: 873145-292-R-J1-PDC complex spheroid viability
Assay: Anticancer human tumor 873145-292-R-J1-PDC patient-derived renal clear cell carcinoma cell line growth inhibition [POLQ]
Conditions: for pIC50: curve of first compound; for viability, T/C: stronger effect = lower value
How it was run: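 PDC + HUVEC + MSC complex spheroids; POLQ inhibitors ± partner drugs; top conc. at/near clinical Cmax, else 10 microM (SN-38 1 microM), half-log dilutions; 37 degrees C, 5% CO2.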

[1] = second compound 0.0316 µM, first compound 0.0316 µM
[2] = second compound 0.0316 µM, first compound 0.1 µM
[3] = second compound 0.0316 µM, first compound 0.316 µM
[4] = second compound 0.0316 µM, first compound 1 µM
[5] = second compound 0.1 µM, first compound 0.0316 µM
[6] = second compound 0.1 µM, first compound 0.1 µM
[7] = second compound 0.1 µM, first compound 0.316 µM
[8] = second compound 0.1 µM, first compound 1 µM
[9] = second compound 0.316 µM, first compound 0.0316 µM
[10] = second compound 0.316 µM, first compound 0.1 µM
[11] = second compound 0.316 µM, first compound 0.316 µM
[12] = second compound 0.316 µM, first compound 1 µM
[13] = second compound 1 µM, first compound 0.0316 µM
[14] = second compound 1 µM, first compound 0.1 µM
[15] = second compound 1 µM, first compound 0.316 µM
[16] = second compound 1 µM, first compound 1 µM
[17] = second compound 3.16 µM, first compound 0.0316 µM
[18] = second compound 3.16 µM, first compound 0.1 µM
[19] = second compound 3.16 µM, first compound 0.316 µM
[20] = second compound 3.16 µM, first compound 1 µM
[21] = second compound 10 µM, first compound 0.0316 µM
[22] = second compound 10 µM, first compound 0.1 µM
[23] = second compound 10 µM, first compound 0.316 µM
[24] = second compound 10 µM, first compound 1 µM
[25] = second compound 0.0316 µM, first compound 0.00316 µM
[26] = second compound 0.0316 µM, first compound 0.01 µM
[27] = second compound 0.1 µM, first compound 0.00316 µM
[28] = second compound 0.1 µM, first compound 0.01 µM
[29] = second compound 0.316 µM, first compound 0.00316 µM
[30] = second compound 0.316 µM, first compound 0.01 µM
[31] = second compound 1 µM, first compound 0.00316 µM
[32] = second compound 1 µM, first compound 0.01 µM
[33] = second compound 3.16 µM, first compound 0.00316 µM
[34] = second compound 3.16 µM, first compound 0.01 µM
[35] = second compound 10 µM, first compound 0.00316 µM
[36] = second compound 10 µM, first compound 0.01 µM
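Also: spheroids exposed to compounds for 7 days before viability readout.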
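For viability, T/C in this document: luminescence signal used as surrogate for viable cell content; 100% = DMSO vehicle control viability.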

## CNCc1ccc(-c2[nH]c3cc(F)cc4c3c2CCNC4=O)cc1 + Nc1ccc(C#CCN(C(=O)Cc2ncc(C(F)(F)F)cc2C(F)(F)F)c2ccc(F)cc2)nn1
Second compound 0.0316 µM
  pIC50: < 5.00
Second compound 0.1 µM
  pIC50: < 5.00
Second compound 0.316 µM
  pIC50: < 5.00
Second compound 1 µM
  pIC50: < 5.00
Second compound 3.16 µM
  pIC50: < 5.00
Second compound 10 µM
  pIC50: < 5.00
[1]
  viability, T/C: 99%
[2]
  viability, T/C: 92.8%
[3]
  viability, T/C: 89.1%
[4]
  viability, T/C: 87.7%
Second compound 0.0316 µM, first compound 3.16 µM
  viability, T/C: 95.5%
Second compound 0.0316 µM, first compound 10 µM
  viability, T/C: 103%
[5]
  viability, T/C: 107%
[6]
  viability, T/C: 105%
[7]
  viability, T/C: 83.5%
[8]
  viability, T/C: 88.9%
Second compound 0.1 µM, first compound 3.16 µM
  viability, T/C: 88.3%
Second compound 0.1 µM, first compound 10 µM
  viability, T/C: 92.8%
[9]
  viability, T/C: 97.3%
[10]
  viability, T/C: 95.8%
[11]
  viability, T/C: 88.6%
[12]
  viability, T/C: 92.4%
Second compound 0.316 µM, first compound 3.16 µM
  viability, T/C: 91.6%
Second compound 0.316 µM, first compound 10 µM
  viability, T/C: 89.2%
[13]
  viability, T/C: 102%
[14]
  viability, T/C: 92.9%
[15]
  viability, T/C: 102%
[16]
  viability, T/C: 94.7%
Second compound 1 µM, first compound 3.16 µM
  viability, T/C: 103%
Second compound 1 µM, first compound 10 µM
  viability, T/C: 90.4%
[17]
  viability, T/C: 100%
[18]
  viability, T/C: 104%
[19]
  viability, T/C: 108%
[20]
  viability, T/C: 95.4%
Second compound 3.16 µM, first compound 3.16 µM
  viability, T/C: 97.5%
Second compound 3.16 µM, first compound 10 µM
  viability, T/C: 100%
[21]
  viability, T/C: 109%
[22]
  viability, T/C: 104%
[23]
  viability, T/C: 103%
[24]
  viability, T/C: 100%
Second compound 10 µM, first compound 3.16 µM
  viability, T/C: 99.4%
Second compound 10 µM, first compound 10 µM
  viability, T/C: 105%

## COc1cccc(OCCCN)c1-c1cc(Nc2cnc(C#N)cn2)n[nH]1 + Nc1ccc(C#CCN(C(=O)Cc2ncc(C(F)(F)F)cc2C(F)(F)F)c2ccc(F)cc2)nn1
Second compound 0.0316 µM
  pIC50: < 6.00
Second compound 0.1 µM
  pIC50: < 6.00
Second compound 0.316 µM
  pIC50: < 6.00
Second compound 1 µM
  pIC50: < 6.00
Second compound 3.16 µM
  pIC50: < 6.00
Second compound 10 µM
  pIC50: < 6.00
[25]
  viability, T/C: 94%
[26]
  viability, T/C: 94.2%
[1]
  viability, T/C: 76.3%
[2]
  viability, T/C: 66.6%
[3]
  viability, T/C: 74.3%
[4]
  viability, T/C: 73.2%
[27]
  viability, T/C: 91%
[28]
  viability, T/C: 98.2%
[5]
  viability, T/C: 74.8%
[6]
  viability, T/C: 71.8%
[7]
  viability, T/C: 65.4%
[8]
  viability, T/C: 71.1%
[29]
  viability, T/C: 95.5%
[30]
  viability, T/C: 97%
[9]
  viability, T/C: 67.7%
[10]
  viability, T/C: 66.6%
[11]
  viability, T/C: 79.9%
[12]
  viability, T/C: 77.8%
[31]
  viability, T/C: 96.3%
[32]
  viability, T/C: 78.4%
[13]
  viability, T/C: 73.8%
[14]
  viability, T/C: 70.8%
[15]
  viability, T/C: 83.5%
[16]
  viability, T/C: 73.3%
[33]
  viability, T/C: 90.3%
[34]
  viability, T/C: 88.9%
[17]
  viability, T/C: 68.9%
[18]
  viability, T/C: 67.1%
[19]
  viability, T/C: 65.2%
[20]
  viability, T/C: 83.9%
[35]
  viability, T/C: 103%
[36]
  viability, T/C: 90.3%
[21]
  viability, T/C: 74.3%
[22]
  viability, T/C: 68.5%
[23]
  viability, T/C: 69.1%
[24]
  viability, T/C: 95.5%

## Cn1ncnc1[C@H]1c2n[nH]c(=O)c3cc(F)cc(c23)N[C@@H]1c1ccc(F)cc1 + Nc1ccc(C#CCN(C(=O)Cc2ncc(C(F)(F)F)cc2C(F)(F)F)c2ccc(F)cc2)nn1
Second compound 0.0316 µM
  pIC50: < 7.00
Second compound 0.1 µM
  pIC50: < 7.00
Second compound 0.316 µM
  pIC50: < 7.00
Second compound 1 µM
  pIC50: < 7.00
Second compound 3.16 µM
  pIC50: < 7.00
Second compound 10 µM
  pIC50: < 7.00
Second compound 0.0316 µM, first compound 0.000316 µM
  viability, T/C: 124%
Second compound 0.0316 µM, first compound 0.001 µM
  viability, T/C: 103%
[25]
  viability, T/C: 90.9%
[26]
  viability, T/C: 99.3%
[1]
  viability, T/C: 106%
[2]
  viability, T/C: 104%
Second compound 0.1 µM, first compound 0.000316 µM
  viability, T/C: 105%
Second compound 0.1 µM, first compound 0.001 µM
  viability, T/C: 99.3%
[27]
  viability, T/C: 107%
[28]
  viability, T/C: 91.8%
[5]
  viability, T/C: 102%
[6]
  viability, T/C: 99.6%
Second compound 0.316 µM, first compound 0.000316 µM
  viability, T/C: 97%
Second compound 0.316 µM, first compound 0.001 µM
  viability, T/C: 108%
[29]
  viability, T/C: 99.2%
[30]
  viability, T/C: 96.7%
[9]
  viability, T/C: 98.8%
[10]
  viability, T/C: 96.8%
Second compound 1 µM, first compound 0.000316 µM
  viability, T/C: 94.9%
Second compound 1 µM, first compound 0.001 µM
  viability, T/C: 100%
[31]
  viability, T/C: 96.1%
[32]
  viability, T/C: 97.1%
[13]
  viability, T/C: 95.9%
[14]
  viability, T/C: 96.3%
Second compound 3.16 µM, first compound 0.000316 µM
  viability, T/C: 92.1%
Second compound 3.16 µM, first compound 0.001 µM
  viability, T/C: 108%
[33]
  viability, T/C: 97.2%
[34]
  viability, T/C: 95.3%
[17]
  viability, T/C: 95.8%
[18]
  viability, T/C: 95.8%
Second compound 10 µM, first compound 0.000316 µM
  viability, T/C: 107%
Second compound 10 µM, first compound 0.001 µM
  viability, T/C: 110%
[35]
  viability, T/C: 108%
[36]
  viability, T/C: 117%
[21]
  viability, T/C: 107%
[22]
  viability, T/C: 103%
